Where no end group is shown, it is not given here.
Key:
mouse red blood cells = test: Hemolytic assay; type: cell-based; details: 50 μM peptide (highest tested concentration); 8% mouse red blood cells in PBS, 1 h, 37 °C, absorbance 414 nm, vs 0.1% Triton X-100
Procedure: The hemolytic activity of the peptides against mouse erythrocytes was determined using red blood cells. Fresh mouse red blood cells were washed three times and resuspended in PBS to attain an 8% dilution. Peptides were serially diluted to a final concentration of 50 μM. Next, 100 µL peptide solution was added to 100 μL of mouse red blood cells, wrapped with aluminum foil and incubated for 1 h at 37 °C. The mixture was then centrifuged at 1500× g for 10 min. The supernatant was transferred into a new 96-well plate, and the absorbance of the supernatant was measured at 414 nm. As positive and negative controls, […] in mouse red blood cells were used. Hemolysis was evaluated according to the following equation:
Hemolysis (%) = [(Abs414 nm in the peptide solution − Abs414 nm in PBS)/(Abs414 nm in 0.1% Triton X-100 − Abs414 nm in PBS)] × 100.

P. aeruginosa ATCC 27853 = test: MIC, broth microdilution; type: cell-based; details: two-fold broth microdilution, NB, 2 × 10^5 CFU/mL, 37 °C, 18 h, read at 600 nm, three independent experiments
Procedure: (§1) The experiment was performed in triplicate.

K. pneumoniae KCTC 2208 = test: MIC, broth microdilution; type: cell-based; details: two-fold broth microdilution, NB, 2 × 10^5 CFU/mL, 37 °C, 18 h, read at 600 nm, three independent experiments
Procedure: as §1

Calcein leakage assay [1] = details: PC:CH:SM (1:1:1, w/w) LUVs (10 μM) loaded with calcein; excitation 480 nm, emission 520 nm; various peptide concentrations
Procedure: (§4) Peptide-induced membrane permeability was monitored be measuring calcein dye emission in calcein-loaded LUVs [49]. We prepared the lipid mixture, and PC:CH (2:1, w/w) and PC:CH:SM liposomes (1:1:1, w/w) were prepared with 70 mM calcein buffer. A Sephadex G-50 column was used to separate calcein-loaded liposomes from free calcein dye. The LUVs (10 μM) were mixed with various concentrations of the peptide on a 96-well black plate. The fluorescence intensity was measured at excitation and emission wavelengths of 480 and 520 nm, respectively.

S. aureus ATCC 25923 = test: MIC, broth microdilution; type: cell-based, Staphylococcus aureus; details: two-fold broth microdilution, TSB, 2 × 10^5 CFU/mL, 37 °C, 18 h, read at 600 nm, three independent experiments
Procedure: as §1

S. aureus ATCC 29213 = test: MIC, broth microdilution; type: cell-based, Staphylococcus aureus; details: two-fold broth microdilution, TSB, 2 × 10^5 CFU/mL, 37 °C, 18 h, read at 600 nm, three independent experiments
Procedure: as §1

A. baumannii KCTC 2508 [2] = test: MIC, broth microdilution; type: cell-based, Acinetobacter baumannii; details: two-fold broth microdilution, NB, 2 × 10^5 CFU/mL, 37 °C, 18 h, read at 600 nm, no added salt, three independent experiments
Procedure: as §1

[3] = calcein-loaded LUVs, Figure 4c
Procedure: Peptide-induced membrane permeability was monitored be measuring calcein dye emission in calcein-loaded LUVs. We prepared the lipid mixture, and PC:CH (2:1, w/w) and PC:CH:SM liposomes (1:1:1, w/w) were prepared with 70 mM calcein buffer. A Sephadex G-50 column was used to separate calcein-loaded liposomes from free calcein dye. The LUVs (10 μM) were mixed with various concentrations of the peptide on a 96-well black plate. The fluorescence intensity was measured at excitation and emission wavelengths of 480 and 520 nm, respectively.

[4] = test system: L. monocytogenes KCTC 3710; test: MIC, broth microdilution; type: cell-based, Listeria monocytogenes; details: two-fold broth microdilution, BHI, 2 × 10^5 CFU/mL, 37 °C, 18 h, read at 600 nm, three independent experiments
Procedure: as §1

[5] = test system: S. typhimurium ATCC 14028; test: MIC, broth microdilution; type: cell-based, Salmonella typhimurium; details: two-fold broth microdilution, NB, 2 × 10^5 CFU/mL, 37 °C, 18 h, read at 600 nm, three independent experiments
Procedure: as §1

B. cereus KCTC 1012 = test: MIC, broth microdilution; type: cell-based, Bacillus cereus; details: two-fold broth microdilution, TSB, 2 × 10^5 CFU/mL, 37 °C, 18 h, read at 600 nm, three independent experiments
Procedure: as §1

Calcein leakage assay [6] = details: PC:CH LUVs (10 μM) loaded with calcein; excitation 480 nm, emission 520 nm; various peptide concentrations
Procedure: as §4

E. coli ATCC 25922 = test: MIC, broth microdilution; type: cell-based, Escherichia coli; details: two-fold broth microdilution, LB, 2 × 10^5 CFU/mL, 37 °C, 18 h, read at 600 nm, three independent experiments
Procedure: as §1

A. baumannii KCTC 2508 [7] = details: NB supplemented with 150 mM NaCl, triplicate
Procedure: (§2) Hp1404 and its analog peptides activity against both gram-positive and gram-negative bacterial strains were tested using the broth microdilution method. Briefly, S. aureus (ATCC 25923, ATCC 29213) and B. cereus KCTC 1012 were cultured overnight at 37 °C in tryptic soy broth (TSB). P. aeruginosa ATCC 27853, K. pneumoniae KCTC 2208, A. baumannii KCTC 2508 and S. typhimurium ATCC 14028 were cultured overnight at 37 °C in nutrient broth (NB). E. coli ATCC 25922 was cultured overnight at 37 °C in luria bertani (LB). L. monocytogenes KCTC 3710 was cultured overnight at 37 °C in brain heart infusion (BHI). The cultures were diluted with fresh medium at a density of 2 × 10^5 CFU/mL. Peptides were serially diluted in sodium phosphate buffer (pH 7.2) to a final concentration of 25 μM. In a 96-well plate, 50-μL bacterial aliquots were mixed with 50 μL peptide solution. After incubation at 37 °C for 18 h, the MIC was determined using a plate reader at 600 nm. The experiment was performed in triplicate.
To determine whether antibacterial activity was affected by the presence of salts, experiments were conducted as previously reported. We determined the MICs of NB supplemented with 150 mM NaCl. MIC assays were performed as described above. The assay was performed in triplicate.

HaCaT cells = details: 50 μM peptide, 24 h, MTT assay
Procedure: The cytotoxicity of the peptides against mammalian cells was calculated using the MTT assay. Human keratinocyte HaCaT cells were incubated in Dulbecco’s modified Eagle’s medium (DMEM) supplemented with 10% fetal bovine serum and 1% penicillin at 37 °C with 5% CO2. HaCaT cells were added at 2 × 10^5 cells/mL to DMEM supplemented with 10% fetal bovine serum and placed in 96-well plates. The plates were incubated overnight at 37 °C in a CO2 incubator. Peptides were serially diluted two-fold in DMEM, added to the cell cultures and incubated for 24 h at 37 °C. MTT solution (5 mg/mL) was added to each well and incubated for 1 h at 37 °C. The media was discarded, and the formazan crystals were dissolved in 100 μL dimethyl sulfoxide. The absorbance was measured using a Versa-Max microplate ELISA reader (Molecular Devices, Sunnyvale, CA, USA) at 570 and 650 nm. As a […], 0.1% Triton X-100 was used.

A. baumannii #3 = test: microbe, parasite or virus in culture; details: A. baumannii #3 isolated from patient; broth microdilution, 37 °C, 18 h; three independent experiments
From the text: (§3) Staphylococcus aureus ATCC 25923, S. aureus ATCC 29213, P. aeruginosa ATCC 27853, Escherichia coli ATCC 25922 and Salmonella typhimurium ATCC 14028 strains were obtained from the American Type Culture Collection (ATCC, Manassas, VA, USA). Listeria monocytogenes KCTC 3710, Bacillus cereus KCTC 1012, K. pneumoniae KCTC 2208 and A. baumannii KCTC 2508 were obtained from the Korean Collection for Type Cultures (KRIBB, Daejeon, South Korea). Clinical isolates of A. baumannii strains were collected from Eulji University Hospital (Seoul, South Korea).
as §2

A. baumannii #4 = test: microbe, parasite or virus in culture; details: A. baumannii #4 isolated from patient; broth microdilution, 37 °C, 18 h; three independent experiments
From the text: as §3, §2

A. baumannii #2 = test: microbe, parasite or virus in culture; details: A. baumannii #2 isolated from patient; broth microdilution, 37 °C, 18 h; three independent experiments
From the text: as §3, §2

A. baumannii 907233 = test: microbe, parasite or virus in culture; details: A. baumannii 907233 isolated from patient; broth microdilution, 37 °C, 18 h; three independent experiments
From the text: as §3, §2

A. baumannii 409081 = test: microbe, parasite or virus in culture; details: A. baumannii 409081 isolated from patient; broth microdilution, 37 °C, 18 h; three independent experiments
From the text: as §3, §2

A. baumannii 719705 = test: microbe, parasite or virus in culture; details: A. baumannii 719705 isolated from patient; broth microdilution, 37 °C, 18 h; three independent experiments
From the text: as §3, §2

## GILGKLWEGVKSIK-NH2 [Hp1404-K]
Mouse red blood cells
  hemolytic activity: no hemolytic activity
P. aeruginosa ATCC 27853
  MIC: >25 µM
K. pneumoniae KCTC 2208
  MIC: >25 µM
Calcein leakage assay [1]
  calcein release (fluorescence intensity): did not release calcein
S. aureus ATCC 25923
  MIC: 25 µM
S. aureus ATCC 29213
  MIC: >25 µM
A. baumannii KCTC 2508 [2]
  MIC: 25 µM
[3]
  calcein leakage fluorescence (bioimaging): no fluorescence was observed
[4]
  MIC: >25 µM
[5]
  MIC: 12.5 µM
B. cereus KCTC 1012
  MIC: >25 µM
Calcein leakage assay [6]
  calcein release (fluorescence intensity): did not release calcein
E. coli ATCC 25922
  MIC: >25 µM

## GILGKLWEGVKSIL-NH2 [Hp1404-L]
Mouse red blood cells
  hemolytic activity: 45.8%
P. aeruginosa ATCC 27853
  MIC: 12.5 µM
K. pneumoniae KCTC 2208
  MIC: 12.5 µM
S. aureus ATCC 25923
  MIC: 1.56 µM
S. aureus ATCC 29213
  MIC: 6.25 µM
A. baumannii KCTC 2508 [2]
  MIC: 3.13 µM
A. baumannii KCTC 2508 [7]
  MIC in the presence of 150 mM NaCl: 6.25 µM
[4]
  MIC: 3.13 µM
[5]
  MIC: 1.56 µM
HaCaT cells
  Cell viability: 62.4%
A. baumannii #3
  MIC: 3.13 µM
A. baumannii #4
  MIC: 3.13 µM
A. baumannii #2
  MIC: 3.13 µM
A. baumannii 907233
  MIC: 3.13 µM
A. baumannii 409081
  MIC: 3.13 µM
A. baumannii 719705
  MIC: 3.13 µM
B. cereus KCTC 1012
  MIC: 12.5 µM
E. coli ATCC 25922
  MIC: 12.5 µM

## GILGKLWEGVKSIV-NH2 [Hp1404-V]
Mouse red blood cells
  hemolytic activity: no hemolytic activity
P. aeruginosa ATCC 27853
  MIC: >25 µM
K. pneumoniae KCTC 2208
  MIC: >25 µM
S. aureus ATCC 25923
  MIC: 6.25 µM
S. aureus ATCC 29213
  MIC: 25 µM
A. baumannii KCTC 2508 [2]
  MIC: 6.25 µM
A. baumannii KCTC 2508 [7]
  MIC in the presence of 150 mM NaCl: 25 µM
[4]
  MIC: 25 µM
[5]
  MIC: 6.25 µM
HaCaT cells
  Cell viability: 100%
A. baumannii #3
  MIC: 6.25 µM
A. baumannii #4
  MIC: 6.25 µM
A. baumannii #2
  MIC: 6.25 µM
A. baumannii 907233
  MIC: 6.25 µM
A. baumannii 409081
  MIC: 6.25 µM
A. baumannii 719705
  MIC: 12.5 µM
B. cereus KCTC 1012
  MIC: 25 µM
E. coli ATCC 25922
  MIC: 25 µM

## GILGKLWEGVKSIW-NH2 [Hp1404-W]
Mouse red blood cells
  hemolytic activity: 15.9%
P. aeruginosa ATCC 27853
  MIC: 25 µM
K. pneumoniae KCTC 2208
  MIC: 12.5 µM
S. aureus ATCC 25923
  MIC: 3.13 µM
S. aureus ATCC 29213
  MIC: 12.5 µM
A. baumannii KCTC 2508 [2]
  MIC: 3.13 µM
A. baumannii KCTC 2508 [7]
  MIC in the presence of 150 mM NaCl: 6.25 µM
[4]
  MIC: 6.25 µM
[5]
  MIC: 3.13 µM
HaCaT cells
  Cell viability: 100%
A. baumannii #3
  MIC: 3.13 µM
A. baumannii #4
  MIC: 3.13 µM
A. baumannii #2
  MIC: 3.13 µM
A. baumannii 907233
  MIC: 3.13 µM
A. baumannii 409081
  MIC: 3.13 µM
A. baumannii 719705
  MIC: 3.13 µM
B. cereus KCTC 1012
  MIC: 25 µM
E. coli ATCC 25922
  MIC: 12.5 µM
